Results reported in patent US20240368563A1, “IN VITRO METHOD OF INVASIVE AND DUCTAL CELL GROWTH” (Helmholtz Zentrum München - Deutsches Forschungszentrum Für …, priority 2021, published 2024).

How the values were obtained:
Format in all cases: cell-based
[1] = test system: human mammary luminal progenitor (LP) cells; test: Branched structure formation of single LP cells in collagen type I gels (carmine staining, quantification of structure type, size, complexity)
Description: Healthy mammary gland tissue was provided by the Nymphenburg Clinic for Plastic and Aesthetic Surgery and processed in accordance with the regulations of the ethics committee of the Ludwig-Maximilian University, Munich, Germany (proposal 19-989) as described previously^35,63. In brief, reduction mammoplasty tissue was minced with scalpels into 2-3 mm^3 pieces. Next, tissue was digested with 300 U/mL collagenase I and 100 U/mL hyaluronidase and 1 μg/mL insulin for approximately 16 hrs. Finally, fragments were either cryopreserved immediately or a single cell suspension was made using trypsin-EDTA and dispase. If cells were cryopreserved as fragments, they were turned into a single cell suspension upon thawing using trypsin-EDTA and dispase. Prior to experiments, single cell suspensions were filtered through a 40 μm cell strainer. Age and parity of donors used in this study are catalogued in Table 1 given directly below.
3D collagen type I gels were prepared as described previously^35,63 with modifications. Single cell suspensions were mixed with BLOM foundation, rat tail collagen type I (Corning) and neutralizing solution. The final collagen concentration was 1.3 mg/ml. If the pH of the solution was <7.4, the pH was adjusted by addition of NaOH (1 M) up to a volume of 1 μl per 100 μl polymerization solution. After polymerization for 1 hr, 2× concentrated full medium was added onto the gels in a 1:1 volume ratio to the gel. Gels were encircled with a pipette tip for detachment. For cells that had not been in culture previously, the first medium exchange (from now on with 1× concentrated medium) was done after 5 d and then every 2-3 d. In case of cells that had been in 2D culture before, the first medium exchange was done between 3 d and 5 d. For all experiments except ELDA, per 1 ml of gel, between 250 and 2000 LP cells were seeded. In case of B+ and LM cells, between 2000 and 7500 cells were seeded per 1 ml of gel.
Images of carmine stained structures were evaluated with ImageJ. The size of an organoid was determined with the ImageJ area tool. Here, all tips of the structure were virtually connected with the ImageJ area tool and size was defined as the area covered by the organoid. For assessment of complexity, the longest branch was identified within each structure. The hierarchy of all other branches relative to this longest branch was classified (see FIG. 6B).
Carmine staining solution was prepared with a concentration of 0.5 g/l carmine and 1.15 g/l aluminium potassium sulfate in distilled water. For staining of 3D structures, gels were fixed with 4% paraformaldehyde for 15 min and incubated with carmine staining solution overnight. Images were acquired on a Leica DM IL LED microscope using a HiPlan 10×/0.22 PH1 objective. Three PBS washing steps were performed in between all steps described above.

[2] = test system: human mammary luminal progenitor (LP) cells; test: Live-cell imaging of LP-derived organoids during elongation phase (cell movement, bead displacement, duct elongation)
Description: Live cell imaging was performed using a Leica SP8 lightning confocal microscope with an on-stage incubation system (Ibidi) regulating CO2, O2, humidity and temperature. Organoids were imaged during elongation phase between day 7 and 9 with a time separation of 10 min between each acquired image. For visualization, nuclei were labelled with 10 μM sirDNA (Spirochrome AG) 3 hours prior to the measurements. Accordingly, organoids were excited at 633 nm and the fluorescent signal was collected around 674 nm using a HCX PL APO 10×/0.40 CS dry objective. Bead displacements/deformation fields were visualized using ImageJ 1.48v. First, the fluorescence signal of the fluorescent nuclei at the first time step was summed up along the z-axis to visualize the shape of the organoid. Second the fluorescence channel of the beads was summed along the z-axis and subsequently summed up over all time steps. At last, both calculated pictures were merged into one image. Bead tracking was calculated using Matlab R2020b. First, the fluorescence channel of the beads was masked by an intensity threshold to reduce the background. Second, bead positions are defined by taking the center of an interpolated intensity grid. Third, individual bead tracks were calculated by matching bead coordinates in three consecutive images. Thereby, beads touching the boundaries or beads to close to each other were excluded to guarantee a correct tracking.
Analysis for structure prevalence, type, size and complexity was performed with GraphPad Prism 8. Nuclei velocity within the organoid was calculated via optical flow using the in Matlab implemented Farneback algorithm. By defining the branch axis, the velocities were separated in a parallel and orthogonal component. The directionality of nuclei migration was defined by calculating the ratio of parallel and orthogonal component. Consequently, at directionality equal to one parallel and orthogonal component are at the same order of magnitude. At higher or lower values, either parallel or orthogonal velocity component dominates. In order to visualize the migration patterns of individual cells, cells were manually tracked. Therefore, each nucleus was tracked three times and the resulting average path was calculated.
Collagen degradation via MMPs was inhibited by using 10 μM Marimastat (Merck, 444289), which was added to the medium of elongating organoids prior to imaging. E-cadherin blocking was performed by addition of an E-cadherin blocking-antibody HECD1 in a dilution of 1:25 after 5 d of organoid culture.

[3] = test system: human mammary luminal progenitor (LP) cells; test: Immunofluorescence of polarization markers in LP-derived organoids; conditions: BLOM-medium without Y-27632
Description: 2D cells for immunofluorescence were cultured in 96-wells with optically clear bottom (PerkinElmer, 6005550). Immunofluorescence was performed as described previously^35,63. In brief, 2D cells or 3D cells (in collagen type I gels) were fixed with 4% paraformaldehyde for 15 min. Cells were permeabilized with 0.2% Triton X-100 for 2 min (2D) and 10 min (3D) respectively. Blocking was performed with 10% donkey serum in 0.1% BSA for 1 hr (2D) and overnight at 4° C. (3D) respectively. Primary antibodies in 0.1% BSA were incubated for 1 hr (2D) and overnight at 4° C. (3D) respectively. Next, DAPI (167 ng/ml) was added for 2 min (2D) and 10 min (3D), respectively. Finally, Aqua-Poy/Mount mounting medium (Polysciences, 18606) was added to preserve staining. Three PBS washing steps were performed in between all steps described above. Images of cells grown in 2D were acquired on an Axio Imager. A M2m imaging microscope was used with a 40× objective. Images of cells grown in 3D were acquired on FLUOVIEW FV1000 inverted confocal laser scanning microscope equipped with four laser lines (405, 488, 543, and 633 nm) using UPLSAPO 60×, 40× and 20× objective lenses. Images were processed with Gimp 2.8.22 and ImageJ 1.52i.

[4] = 10 μM Marimastat during branch elongation phase

## Cc1ccc2c(c1)C(=O)[C@]1(O)CCN(c3ccc(N)cc3)C1=N2 [PAB, para-amino blebbistatin]
[1]; BLOM-medium without Y-27632, PAB added, donors M16, M28, M44
  branched structure phenotype when Y-27632 is replaced by PAB (in words): able to induce a phenotype similar to the one created by Y-27632

## CNC(=O)[C@@H](NC(=O)[C@H](CC(C)C)[C@H](O)C(=O)NO)C(C)(C)C [Marimastat]
[2]; [4]
  duct elongation / invasion of branch tips (in words): stopped the branch tips from further invading the matrix
  general cytotoxic effect (in words): excluding a general cytotoxic effect

## C[C@@H](N)[C@H]1CC[C@H](C(=O)Nc2ccncc2)CC1 [Y-27632]
[3]
  apical-basal polarization of organoids (laminin, F-actin, lumen) (in words): polarization was disturbed in the absence of ROCK inhibition
[1]; BLOM-medium without Y-27632 (DMSO ctrl) vs with Y-27632 (5 μM), donors M35, M44, M45
  decrease in branched structure formation upon removal of Y-27632: 79%
[1]; BLOM-medium without Y-27632 (DMSO ctrl) vs with Y-27632, size = area covered by organoid
  change in size of branched structures upon removal of Y-27632: −66%
[1]; control organoids in BLOM-medium with Y-27632 (only 6% without Y-27632)
  organoids with tertiary or even more complex branches: 65%
[1]; medium deprived of Y-27632
  formation of elongated branched structures (in words): prevented the formation of elongated branched structures almost completely
[2]; in the presence of ROCK inhibitor, collagen gels spiked with fluorescent beads
  bead displacement / contractility (in words): not completely abolished, but limited to the front of elongating branches
[2]; under ROCK inhibition (with Y-27632), nuclear labelling
  directionality of cell migration within organoids (in words): primarily directed outwards in parallel to the axis of the extending branch
